Source: patent US20040259851A1, “Methods of administering estrogens and progestins” (priority 2003, published 2004)
Where two headings read alike, the source gives them in different places.

Assays:
[1] = Megestrol Acetate in plasma samples by GC/MS; type: in vivo; conditions: human; for concentration at 1 h: 1 h post dosing; for concentration at 2 h: 2 h post dosing; for concentration at 4 h: 4 h post dosing; for concentration at 8 h: 8 h post dosing; for concentration at 12 h: 12 h post dosing; for concentration at 24 h: 24 h post dosing; for concentration at 36 h: 36 h post dosing; for concentration at 48 h: 48 h post dosing; for concentration at 0 h: time 0 h (predose)
Description: A total of 90 plasma samples were analyzed for their content of Megestrol Acetate by GC/MS.
In this study megestrol acetate was utilized and medroxyprogesterone acetate was utilized as an internal standard.
For each sample, 1 mL of human plasma was aliquoted and spiked with 25 μL of the internal standard working solution. In the following, the samples were alkalized and extracted with a toluene/diisopropylether mixture. The resulting extracts were stored in a refrigerator until measurement. Just prior to measurement, the sample extracts were evaporated to dryness and reconstituted in toluene. 2 μL of the resulting solution were injected into the GC/MS system. The gas chromatograph was run in the temperature-programmed mode to achieve improved separation. Positive ions chemical ionization (PICI) was used for mass selective detection. Selected mass/charge ratios were m/z 385.2 for megestrol acetate and m/z 387.2 for the internal standard.
The time measured represents the number of hours passed post dosing. Subjects 2, 4, 6, 8 and 10 all received a 6 mg dose of megestrol acetate. Subjects 1, 3, 5, 7 and 9 all received a 1.5 mg dose of megestrol acetate. […] A third measurement was not possible due to insufficient sample. During the study, 3 series of plasma calibration curves were measured (prevalidation run not considered).

menopausal hot flashes = conditions: cited from earlier work

concentration at 1 h ([1]; 1.5 mg, Sub 1, 1.5 mg dose): 7.82 ng/mL
concentration at 2 h ([1]; 1.5 mg, Sub 1, 1.5 mg dose): 2.74 ng/mL
concentration at 4 h ([1]; 1.5 mg, Sub 1, 1.5 mg dose): 1.01 ng/mL
concentration at 8 h ([1]; 1.5 mg, Sub 1, 1.5 mg dose): 0.607 ng/mL
concentration at 12 h ([1]; 1.5 mg, Sub 1, 1.5 mg dose): 0.413 ng/mL
concentration at 24 h ([1]; 1.5 mg, Sub 1, 1.5 mg dose): 0.399 ng/mL
concentration at 36 h ([1]; 1.5 mg, Sub 1, 1.5 mg dose): 0.504 ng/mL
concentration at 48 h ([1]; 1.5 mg, Sub 1, 1.5 mg dose): 0.463 ng/mL
concentration at 0 h ([1]; 1.5 mg, Sub 1, 1.5 mg dose): 0.492 ng/mL
concentration at 1 h ([1]; 1.5 mg, Sub 3, 1.5 mg dose): 9.32 ng/mL
concentration at 2 h ([1]; 1.5 mg, Sub 3, 1.5 mg dose): 5.24 ng/mL
concentration at 4 h ([1]; 1.5 mg, Sub 3, 1.5 mg dose): 3.04 ng/mL
concentration at 8 h ([1]; 1.5 mg, Sub 3, 1.5 mg dose): 2.66 ng/mL
concentration at 12 h ([1]; 1.5 mg, Sub 3, 1.5 mg dose): 1.98 ng/mL
concentration at 24 h ([1]; 1.5 mg, Sub 3, 1.5 mg dose): 1.8 ng/mL
concentration at 36 h ([1]; 1.5 mg, Sub 3, 1.5 mg dose): 1.99 ng/mL
concentration at 48 h ([1]; 1.5 mg, Sub 3, 1.5 mg dose): 1.48 ng/mL
concentration at 0 h ([1]; 1.5 mg, Sub 3, 1.5 mg dose): 1.98 ng/mL
concentration at 1 h ([1]; 1.5 mg, Sub 5, 1.5 mg dose): 4.98 ng/mL
concentration at 2 h ([1]; 1.5 mg, Sub 5, 1.5 mg dose): 2.75 ng/mL
concentration at 4 h ([1]; 1.5 mg, Sub 5, 1.5 mg dose): 0.959 ng/mL
concentration at 8 h ([1]; 1.5 mg, Sub 5, 1.5 mg dose): 0.521 ng/mL
concentration at 12 h ([1]; 1.5 mg, Sub 5, 1.5 mg dose): 0.353 ng/mL
concentration at 24 h ([1]; 1.5 mg, Sub 5, 1.5 mg dose): 0.344 ng/mL
concentration at 36 h ([1]; 1.5 mg, Sub 5, 1.5 mg dose): 0.409 ng/mL
concentration at 48 h ([1]; 1.5 mg, Sub 5, 1.5 mg dose): 0.267 ng/mL
concentration at 0 h ([1]; 1.5 mg, Sub 5, 1.5 mg dose): 0.426 ng/mL
concentration at 1 h ([1]; 1.5 mg, Sub 7, 1.5 mg dose): 7.82 ng/mL
concentration at 2 h ([1]; 1.5 mg, Sub 7, 1.5 mg dose): 4.83 ng/mL
concentration at 4 h ([1]; 1.5 mg, Sub 7, 1.5 mg dose): 1.99 ng/mL
concentration at 8 h ([1]; 1.5 mg, Sub 7, 1.5 mg dose): 1.47 ng/mL
concentration at 12 h ([1]; 1.5 mg, Sub 7, 1.5 mg dose): 1.59 ng/mL
concentration at 24 h ([1]; 1.5 mg, Sub 7, 1.5 mg dose): 0.771 ng/mL
concentration at 36 h ([1]; 1.5 mg, Sub 7, 1.5 mg dose): 0.592 ng/mL
concentration at 48 h ([1]; 1.5 mg, Sub 7, 1.5 mg dose): 0.564 ng/mL
concentration at 0 h ([1]; 1.5 mg, Sub 7, 1.5 mg dose): 0.851 ng/mL
concentration at 1 h ([1]; 1.5 mg, Sub 9, 1.5 mg dose): 14.4 ng/mL
concentration at 2 h ([1]; 1.5 mg, Sub 9, 1.5 mg dose): 9.21 ng/mL
concentration at 4 h ([1]; 1.5 mg, Sub 9, 1.5 mg dose): 4.02 ng/mL
concentration at 8 h ([1]; 1.5 mg, Sub 9, 1.5 mg dose): 1.64 ng/mL
concentration at 12 h ([1]; 1.5 mg, Sub 9, 1.5 mg dose): 1.59 ng/mL
concentration at 24 h ([1]; 1.5 mg, Sub 9, 1.5 mg dose): 1.09 ng/mL
concentration at 36 h ([1]; 1.5 mg, Sub 9, 1.5 mg dose): 1.3 ng/mL
concentration at 48 h ([1]; 1.5 mg, Sub 9, 1.5 mg dose): 1.31 ng/mL
concentration at 0 h ([1]; 1.5 mg, Sub 9, 1.5 mg dose): 1.4 ng/mL
concentration at 1 h ([1]; 6 mg, Sub 2, 6 mg dose): 32.9 ng/mL
concentration at 2 h ([1]; 6 mg, Sub 2, 6 mg dose): 28.1 ng/mL
concentration at 4 h ([1]; 6 mg, Sub 2, 6 mg dose): 9.89 ng/mL
concentration at 8 h ([1]; 6 mg, Sub 2, 6 mg dose): 6.98 ng/mL
concentration at 12 h ([1]; 6 mg, Sub 2, 6 mg dose): 5.84 ng/mL
concentration at 24 h ([1]; 6 mg, Sub 2, 6 mg dose): 4.4 ng/mL
concentration at 36 h ([1]; 6 mg, Sub 2, 6 mg dose): 5.04 ng/mL
concentration at 48 h ([1]; 6 mg, Sub 2, 6 mg dose): 3.58 ng/mL
concentration at 0 h ([1]; 6 mg, Sub 2, 6 mg dose): 6.48 ng/mL
concentration at 1 h ([1]; 6 mg, Sub 4, 6 mg dose): 37.4 ng/mL
concentration at 2 h ([1]; 6 mg, Sub 4, 6 mg dose): 18.7 ng/mL
concentration at 4 h ([1]; 6 mg, Sub 4, 6 mg dose): 7.22 ng/mL
concentration at 8 h ([1]; 6 mg, Sub 4, 6 mg dose): 4.7 ng/mL
concentration at 12 h ([1]; 6 mg, Sub 4, 6 mg dose): 3.05 ng/mL
concentration at 24 h ([1]; 6 mg, Sub 4, 6 mg dose): 2.17 ng/mL
concentration at 36 h ([1]; 6 mg, Sub 4, 6 mg dose): 3.58 ng/mL
concentration at 48 h ([1]; 6 mg, Sub 4, 6 mg dose): 2.9 ng/mL
concentration at 0 h ([1]; 6 mg, Sub 4, 6 mg dose): 4.44 ng/mL
concentration at 1 h ([1]; 6 mg, Sub 6, 6 mg dose): 44 ng/mL
concentration at 2 h ([1]; 6 mg, Sub 6, 6 mg dose): 32.1 ng/mL
concentration at 4 h ([1]; 6 mg, Sub 6, 6 mg dose): 12.6 ng/mL
concentration at 8 h ([1]; 6 mg, Sub 6, 6 mg dose): 7.61 ng/mL
concentration at 12 h ([1]; 6 mg, Sub 6, 6 mg dose): 5.8 ng/mL
concentration at 24 h ([1]; 6 mg, Sub 6, 6 mg dose): 4.04 ng/mL
concentration at 36 h ([1]; 6 mg, Sub 6, 6 mg dose): 6.58 ng/mL
concentration at 48 h ([1]; 6 mg, Sub 6, 6 mg dose): 5.65 ng/mL
concentration at 0 h ([1]; 6 mg, Sub 6, 6 mg dose): 8.58 ng/mL
concentration at 1 h ([1]; 6 mg, Sub 8, 6 mg dose): 19.5 ng/mL
concentration at 2 h ([1]; 6 mg, Sub 8, 6 mg dose): 10.6 ng/mL
concentration at 4 h ([1]; 6 mg, Sub 8, 6 mg dose): 3.68 ng/mL
concentration at 8 h ([1]; 6 mg, Sub 8, 6 mg dose): 1.41 ng/mL
concentration at 12 h ([1]; 6 mg, Sub 8, 6 mg dose): 0.908 ng/mL
concentration at 24 h ([1]; 6 mg, Sub 8, 6 mg dose): 0.459 ng/mL
concentration at 36 h ([1]; 6 mg, Sub 8, 6 mg dose): 1.34 ng/mL
concentration at 48 h ([1]; 6 mg, Sub 8, 6 mg dose): 0.796 ng/mL
concentration at 0 h ([1]; 6 mg, Sub 8, 6 mg dose): < 0.1 ng/mL
concentration at 1 h ([1]; 6 mg, Sub 10, 6 mg dose): 23.5 ng/mL
concentration at 2 h ([1]; 6 mg, Sub 10, 6 mg dose): 17.2 ng/mL
concentration at 4 h ([1]; 6 mg, Sub 10, 6 mg dose): 6.93 ng/mL
concentration at 8 h ([1]; 6 mg, Sub 10, 6 mg dose): 4.95 ng/mL
concentration at 12 h ([1]; 6 mg, Sub 10, 6 mg dose): 2.85 ng/mL
concentration at 24 h ([1]; 6 mg, Sub 10, 6 mg dose): 1.77 ng/mL
concentration at 36 h ([1]; 6 mg, Sub 10, 6 mg dose): 2.6 ng/mL
concentration at 48 h ([1]; 6 mg, Sub 10, 6 mg dose): 1.63 ng/mL
SMILES: CC(=O)O[C@]1(C(C)=O)CC[C@H]2[C@@H]3C=C(C)C4=CC(=O)CC[C@]4(C)[C@H]3CC[C@@]21C [megestrol acetate, Pregna-4,6-diene-3,20-dione, 17-(acetyloxy)-6-methyl-]
decrease of menopausal hot flashes (menopausal hot flashes; daily dose 20 mg): 80%
decrease of menopausal hot flashes (menopausal hot flashes; daily dose 40 mg): 89%
decrease of menopausal hot flashes (menopausal hot flashes; daily dose 80 mg): 98%
